Reference: patent publication US20030153080A1, “Methods for improving conifer embryogenesis” (priority 2002, published 2003)

Columns and labels:
Assay type in all cases: cell-based
[1] = system: loblolly pine stage 2 somatic embryos; test: Somatic embryo capture test in multiplication medium (colony diameter)
Experimental: (§1) For somatic initiation tests, embryos were selected from a liquid suspension culture supplemented with abscisic acid. (Table 1B, medium 16). Each replication consisted of ten adjacent wells on a multiwell plate, with a single stage 2, somatic embryo per well, providing two replications per multiwell plate. Four replications (for a total of 40 explants) were performed per treatment for each genotype. The plates were wrapped in Parafilme wrap to minimize evaporation and incubated at 22-24° C. in the dark for 4-6 weeks or until colony diameters were roughly ¾-1 cm. Typically, a single stage 2 embryo is approximately 0.1 mm in size. During this time period, the single embryo multiplies to form an embryogenic tissue mass of about 5-9 mm in diameter depending on the particular conifer, culture genotype, medium contents, and time. Changes in tissue diameters were used to assay the effects of vitamins or organic acid on early-stage embryo growth and multiplication. Colony diameters were measured using a dissecting scope ocular micrometer.
Tests were conducted to determine the effect on somatic embryo capture of a medium supplemented with individual organic acids, such as alpha-ketoglutaric acid. Embryos of loblolly pine were obtained and treated as described in Example 1. Individual stage 2 embryos were selected from liquid maintenance medium and placed in multiplication medium (Table 1B, medium 1250).
Embryos of loblolly pine were obtained and treated as described in Example 1. Individual stage 2 embryos were selected from liquid maintenance medium and placed in multiplication medium (Table 1B, medium 1250). Stage 2 embryos were likewise placed in medium 1250 supplemented with 60.7 mg/L pyruvic acid (Table 1C, medium 1635). All cultures were incubated in the dark at 24-26° C. for 4-5 weeks.
A representative example for somatic capture uses embryos of loblolly pine obtained and treated as described in Example 1. Individual stage 2 embryos were selected from liquid maintenance medium and placed in multiplication medium (Table 1B, medium 1250). Compared to this control, the addition of 0.1 mg/L vitamin B12 alone to the multiplication medium (Table 1B, medium 1250) increased mean colony diameter by approximately 5%. Likewise, the addition of 100 mg/L alpha-ketoglutaric acid alone to the […] (Table 1B, medium 1250) increased mean colony diameter by approximately 10%.
Individual stage 2 embryos were selected from liquid maintenance medium and placed in multiplication control medium (Table 1B, medium 1250), as well as medium 1638, which is supplemented with 0.1 mg/L vitamin B12, 0.1 mg/L vitamin E, 100 mg/L alpha-ketoglutaric acid and 60.7 mg/L pyruvic acid (Table 1C, medium 1638). […]

[2] = system: Douglas Fir zygotic embryos; test: Zygotic embryo initiation test
Experimental: (§2) Megagametophyte explants were isolated for zygotic initiation tests from loblolly pine summer cones when embryos were at approximately stage 2-4. Seeds were collected from four individual trees of diverse genotypes. Extracted seeds were soaked in running water for 10 minutes, agitated in 10% liquinox supplemented with 2 drops of Tween 20/L (polyoxyethylene-sorbitan monolaurate) for 10 minutes, and rinsed with water for 30 minutes. Seeds were sterilized in a laminar flow hood by agitating in 20% hydrogen peroxide for 10 minutes and rinsing with sterile deionized water. The seed coats, integuments and nucellus were removed to isolate the megagametophytes. Culturing was performed in 24-well culture plates with each well having an approximate volume of 3.0 ml. Two milliliters of media were added into each well.
Embryos of Douglas Fir were obtained, and treated as described in Example 1.
A further example is provided for Douglas Fir. Douglas Fir zygotic embryos were tested for improved initiation when exposed to cultures containing pyruvic acid according to the protocol described in Example 1. Control medium 121 (Table 1C) was supplemented with 60.7 mg/L pyruvic acid to create the test medium (Table 1C, medium 1625). After incubation for eight weeks in the dark, initiation was scored. For tissue exposed to pyruvic acid, mean initiation rates were approximately 35% compared to 32% for the untreated embryos.

[3] = system: loblolly pine megagametophytes; test: Zygotic initiation test with megagametophyte explants (extrusion and initiation); details: for early extrusion and embryo expansion: supplement present in the medium; for effect on extrusion and initiation efficiency: 0.1 mg/L alone (media 1357, 1359), compared with medium 1391
Experimental: as §2
Zygotic and somatic initiation tests were conducted to determine the effect of alpha-ketoglutaric acid in combination with vitamins B12 and E on initiation. Explants of loblolly pine were obtained and treated as described in Example 1 with the following modifications. Each replication consisted of ten adjacent wells on a multiwell plate, with one megagametophyte per well. Ten replications, for a total of 100 seeds, were performed per treatment for each cone collection.
According to the protocol of Example 1, four loblolly pine cone collections of approximately 500 seeds per collection with embryos at stages 2-4 were selected. Seeds were sterilized and dissected. […] Average initiation across the cone collections was roughly 30% for embryos grown on the control medium and roughly 36% for embryos grown on the test medium.

[4] = system: loblolly pine somatic embryos; test: Single somatic embryo initiation test (colony diameter); details: for Mean Colony Diameter: 0.1 mg/L added to medium 1253, measured at 4½ weeks
Experimental: as §1
Osmolarity and pH of the culture media were monitored to ensure that these factors were similar throughout various conditions, and therefore, were not contributing to the observed differences. To analyze the results, the ANOVA statistical analysis was performed.
Single somatic embryo initiation tests were conducted to determine the effect of various vitamins on initiation. Embryos of loblolly pine were obtained and treated as described in Example 1. Isolated explants were incubated either in a control medium (Table 1A, medium 1253), or in the same medium supplemented with the K&M vitamin mixture (Table 1A, medium 1335). […] Evaluation of specific components of the K&M vitamin mixture lead to identification of the components responsible for the observed increase.
Single somatic embryo initiation tests were conducted to determine the effect of alpha-ketoglutaric acid on initiation in loblolly pine. Embryos of loblolly pine were obtained and treated as described in Example 1. The inventors note that a modification to the protocol detailed in Example 1 may be required due to the addition of an organic acid to the base medium. The addition of an acid, such as alpha-ketoglutaric acid, causes media pH to drop and therefore, all media supplemented with alpha-ketoglutaric acid were titrated to pH 5.7 before adding them to the cultures. Titration was performed with KOH, which increased potassium levels in the media by about 0.7 mM.
Single somatic embryo initiation tests were conducted according to the protocol described in Example 1. The inventors note that modification to the protocol detailed in Example 1 may be required due to the addition of an organic acid to the base medium. In culture medium containing 60.72 mg/L pyruvic acid (Table 1B, medium 1462) mean tissue diameter was 7.1 mm compared to a mean tissue diameter of 6.1 for embryos grown on the control medium 1253 indicating a positive correlation between embryo exposure to pyruvic acid and overall initiation. Iterations of this example in loblolly pine yielded similar percentage increases in initiation, e.g., a 7.2 mm mean tissue diameter for medium containing 0.52 mM pyruvic acid compared to 6.5 mm mean tissue diameter in the control medium. As shown herein, this effect is further enhanced by the combinations of multiple organic acids.

[5] = system: Norway Spruce somatic embryos; test: Single somatic embryo initiation test (tissue diameter); details: 60.7 mg/L (medium 1664); control medium 1662 gave 2.8 mm
Experimental: as §1
Tissue isolated and prepared according to Example 1 was incubated in a medium containing 0.1 mg/L of both vitamin B12 and E for 4-5 weeks in the dark at 24-26° C. (Table 1 D, medium 1665). Tissue cultured in medium 1665 achieved an average diameter of 3.1 mm compared to tissue cultured in the control medium, which achieved an average diameter of 2.8 mm. […]

O=C(O)CCC(=O)C(=O)O [alpha-ketoglutaric acid]
increase in mean colony diameter vs medium 1250 ([1]; 100 mg/L alpha-ketoglutaric acid alone): approximately 10%
increase in mean colony diameter ([1]; only additive to control medium 1250, between 100 and 200 mg/L): 5-6%
levels of initiation vs control medium 121 ([2]; 100 mg/L (medium 1624)): higher levels of initiation
early extrusion and embryo expansion [3]: more robust
levels of initiation higher than control as measured by mean colony diameter ([4]; 100 ppm (medium 1342) vs control medium 1253, titrated to pH 5.7): 20%

Nc1ccc(C(=O)O)cc1 [p-aminobenzoic acid]
initiation ([2]; 20 mg/L (medium 1627), base medium 121 gave 32%): 39%
increase in mean colony diameter as compared to the control ([4]; 0.2 ppm (medium 1434) vs control medium 1253): 32%

CC(=O)C(=O)O [pyruvic acid]
average diameter ([1]; 60.7 mg/L in medium 1250 (medium 1635), dark, 24-26° C., 4-5 weeks, control 3.3 mm): roughly 3.7 mm
mean initiation rates ([2]; 60.7 mg/L (medium 1625), eight weeks in the dark, untreated 32%): approximately 35%
mean tissue diameter ([4]; 0.52 mM, iteration of the example, control medium gave 6.5 mm): 7.2 mm
mean tissue diameter ([4]; 60.72 mg/L (medium 1462), control medium 1253 gave 6.1): 7.1 mm
mean diameters [5]: 3.6 mm

vitamin B12 [reference compound]
increase in mean colony diameter vs medium 1250 ([1]; 0.1 mg/L vitamin B12 alone): approximately 5%
effect on extrusion and initiation efficiency [3]: some, but a lesser effect
Mean Colony Diameter [4]: 4.88 mm

vitamin E
effect on extrusion and initiation efficiency [3]: some, but a lesser effect
early extrusion and embryo expansion [3]: more robust
Mean Colony Diameter [4]: 4.65 mm
